Read-outs that look alike come from different tables or passages of the source.
Legend:
[1] = Microsomal stability assay, human; assay type: in vitro ADME; details: metabolic stability, human liver microsomes 0.5 mg/mL, substrate 3 uM
Procedure, shortened: (§1)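 Liver microsomes at 0.5 mg/mL protein in 100 mM KPO4 buffer, incubated with 3 uM compound and NADPH-regenerating system, run in duplicate. Samples taken at 2, 12, 25, 45 and 65 min and quenched in MeOH/ACN/water before analysis.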

[2] = biological target: wild-type human cardiac sodium channel, hNav1.5 (late INa) (Homo sapiens, UniProt Q14524); experiment: Late INa screening assay (QPatch whole cell patch clamp); assay type: cell-based
wild-type human cardiac sodium channel, hNav1.5 (late INa), sequence (Q14524 whole entry): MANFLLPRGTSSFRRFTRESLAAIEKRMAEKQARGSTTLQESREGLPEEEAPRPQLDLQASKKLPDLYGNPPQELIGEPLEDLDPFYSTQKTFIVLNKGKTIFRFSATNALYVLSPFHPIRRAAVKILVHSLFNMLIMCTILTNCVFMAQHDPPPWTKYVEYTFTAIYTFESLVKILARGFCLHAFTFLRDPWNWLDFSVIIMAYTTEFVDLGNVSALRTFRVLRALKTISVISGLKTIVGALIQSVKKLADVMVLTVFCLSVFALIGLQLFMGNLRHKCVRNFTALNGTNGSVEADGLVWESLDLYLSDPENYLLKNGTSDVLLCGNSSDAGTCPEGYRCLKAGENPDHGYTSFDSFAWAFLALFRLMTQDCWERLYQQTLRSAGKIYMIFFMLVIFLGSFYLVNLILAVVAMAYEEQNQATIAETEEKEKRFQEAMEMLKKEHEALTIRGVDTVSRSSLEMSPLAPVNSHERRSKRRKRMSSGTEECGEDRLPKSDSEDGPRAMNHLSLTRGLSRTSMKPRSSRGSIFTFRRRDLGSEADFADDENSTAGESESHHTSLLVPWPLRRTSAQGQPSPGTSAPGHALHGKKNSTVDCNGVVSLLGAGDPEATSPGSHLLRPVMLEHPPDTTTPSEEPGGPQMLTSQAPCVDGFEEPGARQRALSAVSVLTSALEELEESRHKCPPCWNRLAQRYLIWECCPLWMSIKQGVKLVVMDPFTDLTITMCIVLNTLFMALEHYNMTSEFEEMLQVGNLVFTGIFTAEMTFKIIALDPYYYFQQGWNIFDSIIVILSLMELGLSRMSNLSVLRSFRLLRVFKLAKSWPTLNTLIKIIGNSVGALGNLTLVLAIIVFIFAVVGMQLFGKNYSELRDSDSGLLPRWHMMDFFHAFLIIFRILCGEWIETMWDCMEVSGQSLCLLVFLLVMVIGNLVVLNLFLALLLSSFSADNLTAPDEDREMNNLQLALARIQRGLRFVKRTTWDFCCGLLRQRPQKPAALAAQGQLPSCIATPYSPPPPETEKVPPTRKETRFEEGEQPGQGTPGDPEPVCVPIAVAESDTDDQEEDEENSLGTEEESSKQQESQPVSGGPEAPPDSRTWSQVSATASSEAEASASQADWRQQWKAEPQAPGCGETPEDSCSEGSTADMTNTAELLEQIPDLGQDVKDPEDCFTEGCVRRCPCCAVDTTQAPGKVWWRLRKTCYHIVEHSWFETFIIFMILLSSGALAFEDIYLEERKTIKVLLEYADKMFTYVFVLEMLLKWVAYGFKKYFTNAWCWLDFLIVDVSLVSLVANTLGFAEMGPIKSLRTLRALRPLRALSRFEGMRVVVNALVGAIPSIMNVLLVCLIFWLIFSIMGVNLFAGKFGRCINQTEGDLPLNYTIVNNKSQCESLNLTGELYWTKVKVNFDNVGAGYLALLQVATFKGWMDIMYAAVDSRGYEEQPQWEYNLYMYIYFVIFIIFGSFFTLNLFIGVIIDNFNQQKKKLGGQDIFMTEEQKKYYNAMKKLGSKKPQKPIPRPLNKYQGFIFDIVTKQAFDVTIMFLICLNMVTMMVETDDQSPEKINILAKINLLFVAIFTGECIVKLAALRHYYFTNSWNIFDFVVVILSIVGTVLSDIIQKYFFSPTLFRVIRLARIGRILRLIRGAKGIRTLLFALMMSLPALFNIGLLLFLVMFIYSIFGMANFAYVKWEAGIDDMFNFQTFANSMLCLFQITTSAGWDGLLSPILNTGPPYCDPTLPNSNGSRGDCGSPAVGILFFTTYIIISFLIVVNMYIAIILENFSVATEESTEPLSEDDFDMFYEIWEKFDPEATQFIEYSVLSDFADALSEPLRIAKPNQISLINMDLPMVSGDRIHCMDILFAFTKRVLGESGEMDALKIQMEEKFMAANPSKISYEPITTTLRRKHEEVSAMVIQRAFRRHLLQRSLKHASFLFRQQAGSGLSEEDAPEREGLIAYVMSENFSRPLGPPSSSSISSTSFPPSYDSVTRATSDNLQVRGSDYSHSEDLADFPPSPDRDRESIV
Procedure, shortened: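 Compounds tested at 1 μM final in extracellular solution against tefluthrin (10 μM)-enhanced late current. Automated patch clamp (23-25° C) on HEK293 expressing alpha subunit alone: −120 mV holding, 250 ms depolarization to −20 mV every 10 s. Read-out is percent inhibition of mean current over 225–250 ms.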

[3] = biological target: wild-type human cardiac sodium channel, hNav1.5 (peak INa) (Homo sapiens, UniProt Q14524); experiment: Peak INa screening assay (tonic and use-dependent block); assay type: cell-based
wild-type human cardiac sodium channel, hNav1.5 (peak INa), sequence (Q14524 whole entry): as above
Protocol: The late sodium current (Late INa) and peak sodium current (Peak INa) assays are performed on an automated electrophysiology platform, QPatch 16× (Sophion Bioscience, Copenhagen, Denmark), which uses the whole cell patch clamp technique to measure currents through the cell membrane of up to 16 cells at a time. The assay uses an HEK293 (human embryonic kidney) cell line heterologously expressing the wild-type human cardiac sodium channel, hNav1.5, purchased from Millipore (Billerica, Mass.). No beta subunits were coexpressed with the Na channel alpha subunit. Cells are maintained with standard tissue culture procedures and stable channel expression is maintained with 400 μg/mL Geneticin in the culture medium. […] Experiments are carried out at 23-25° C. For both the Late INa and Peak INa assays, series resistance compensation is set to 100% and series resistance and whole-cell compensation are performed automatically. Currents are digitized at 25 kHz and low-pass filtered at 12 kHz and 10 kHz for the late and peak INa assays, respectively. Currents through open sodium channels are automatically recorded and stored in the Sophion Bioscience Oracle database (Sophion Bioscience, Copehagen, Denmark). Analysis is performed using QPatch Assay and database software and data are compiled in Excel. Compound stocks are routinely made by the Gilead Sample Bank in plastic vials to 10 mM in dimethyl sulfoxide (DMSO). In some cases, when compounds are not soluble in DMSO, they are made in 100% ethanol. Stocks are sonicated as necessary. […] The intracellular solution used to perfuse the inside of the cells for both the Late INa and Peak INa assays contains: 120 mM CsF, 20 mM CsCl, 5 mM EGTA, 5 mM HEPES and pH adjusted to 7.4 with CsOH. Compounds are diluted in extracellular solution to 1 μM in glass vials and then transferred to glass well plates before robotic addition to the cells. […] Compounds were also evaluated for their effect in several other assays, including their effect on Peak INa. Good separation between the concentrations of test compound to reduce late and peak INa is beneficial to enable separation of the desired effect to reduce late INa-induced electrical and mechanical dysfunction from the undesired effect to reduce peak INa, which can lead to slowing or block of conduction of electrical excitation in the heart. It is contemplated that the compounds of Formula I avoid significant block of peak INa. Since the peak INa in the cells used herein can be very large, introducing artifacts in the recording, the concentration of Na^+ in the bath can be reduced to 20 mM and a nonpermeant cation added to compensate for the Na^+ that was removed to maintain the osmolarity and ionic strength of the solution (see solution details below). Analysis of peak INa generally requires correction for rundown before determining the % block of peak current by the tested compound. […] A low stimulation frequency of 0.1 Hz was used to determine the effect of the test compound when the channel spent most of the time in the resting (closed) state and provides information about Tonic Block (TB). A higher stimulation frequency (3 Hz) was used to measure block of the channel when it spent more time in the activated and inactivated states and provided a measure of Use-Dependent Block (UDB). Use-dependent block refers to the accumulation of block with increased frequency of channel activation. Block of cardiac peak INa by compounds of this invention is increased with an increase in the frequency of stimulation from 0.1 to 1-5 Hz (frequencies encountered either in the normal heart or during tachycardia). It is therefore expected that reduction of peak INa by compounds of this invention will be greater at high heart rates, such as those during tachyarrhythmias, than at normal heart rates. […]

[4] = Microsomal stability assay, dog; assay type: in vitro ADME; details: metabolic stability, dog liver microsomes 0.5 mg/mL, substrate 3 uM
Procedure, shortened: as §1

[5] = Microsomal stability assay, rat; assay type: in vitro ADME; details: metabolic stability, rat liver microsomes 0.5 mg/mL, substrate 3 uM
Procedure, shortened: as §1

[6] = percent block of late INa, compound at 1 μM, 10 μM Tefluthrin, HEK293 hNav1.5, read-out: Late INa 1 μM
[7] = tonic block of peak INa, 0.1 Hz, 1 μM, read-out: Peak TB 1 μM
[8] = use-dependent block of peak INa, 3 Hz, 1 μM, read-out: Peak UDB 1 μM
[9] = % inhibition at 1 μM, read-out: NAv1.5*-LATE-
[10] = % inhibition at 1 μM, tonic block, read-out: NAv1.5*-PEAK-TB-
[11] = % inhibition at 1 μM, use-dependent block 3 Hz, read-out: NAv1.5*-PEAK-UDB-3 HZ-

| MS Human THalf [1] [min] | MS Dog THalf [4] [min] | MS Rat THalf [5] [min] | SMILES | inhibition at 1 µM [2, 6] [%] | inhibition at 1 µM [3, 7] [%] | inhibition at 1 µM [3, 8] [%] | inhibition at 1 µM [2, 9] [%] | inhibition at 1 µM [3, 10] [%] | inhibition at 1 µM [3, 11] [%] |
| --- | --- | --- | --- | --- | --- | --- | --- | --- | --- |
| 254 | 209 | 42 | O=c1c2cc(-c3ccc(OC(F)(F)F)cc3)ccc2cnn1Cc1nccc(C2CC2)n1 [III-23, 2-((4-cyclopropylpyrimidin-2-yl)methyl)-7-(4-(trifluoromethoxy)phenyl)phthalazin-1 (2H)-one] | 51 | 6 | 12 | – | – | – |
| 268 | 83 | 43 | O=c1c2cc(-c3ccc(OC(F)(F)F)cc3)ccc2cnn1Cc1nccc(OCC2CC2)n1 [III-27, 2((4-(cyclopropylmethoxy)pyrimidin-2-yl)methyl)-7-(4-(trifluoromethoxy)phenyl)phthalazin-1 (2H)-one] | 52 | 15 | 15 | – | – | – |
| 19 | 18 | 26 | O=c1c2cc(-c3ccc(OC(F)(F)F)cc3)ccc2cnn1CCOc1nccc(C2CC2)n1 [III-29, 2-(2-(4-cyclopropylpyrimidin-2-yloxy)ethyl)-7-(4-(trifluoromethoxy)phenyl)phthalazin-1 (2H)-one] | 58 | 10 | 9 | – | – | – |
| 205 | 167 | 70 | COc1ccnc(Cn2ncc3ccc(-c4ccc(OC(F)(F)F)cc4)cc3c2=O)n1 [III-30, 2-((4-methoxypyrimidin-2-yl)methyl)-7-(4-(trifluoromethoxy)phenyl)phthalazin-1 (2H)-one] | 56 | 11 | 12 | – | – | – |
| 20 | 16 | 12 | Cc1ccnn1CCn1ncc2ccc(-c3ccc(OC(F)(F)F)cc3)cc2c1=O [III-32, 2-(2-(5-methyl-1H-pyrazol-1-yl)ethyl)-7-(4-(trifluoromethoxy)phenyl)phthalazin-1 (2H)-one] | 53 | 18 | 23 | – | – | – |
| 157 | 37 | 96 | O=c1c2cc(-c3ccc(OC(F)(F)F)cc3)ccc2cnn1CCOc1ncc(Cl)cn1 [III-37, 2-(2-(5-chloropyrimidin-2-yloxy)ethyl)-7-(4-(trifluoromethoxy)phenyl)phthalazin-1 (2H)-one] | 50 | 7 | 4 | – | – | – |
| 54 | 31 | 24 | CC(Cn1ncc2ccc(-c3ccc(OC(F)(F)F)cc3)cc2c1=O)n1cccn1 (stereo not drawn) [III-38, 2-(2-(1H-pyrazol-1-yl)propyl)-7-(4-(trifluoromethoxy)phenyl)phthalazin-1 (2H)-one] | 52 | 9 | 11 | – | – | – |
| 44 | 14 | 30 | O=c1c2cc(-c3ccc(OC(F)(F)F)cc3)ccc2cnn1CCOc1cnccn1 [III-39, 2-(2-(pyrazin-2-yloxy)ethyl)-7-(4-(trifluoromethoxy)phenyl)phthalazin-1 (2H)-one] | 47 | 7 | 0 | – | – | – |
| 152 | 56 | 62 | O=c1c2cc(-c3ccc(OC(F)(F)F)cc3)ccc2cnn1CCOc1ccccn1 [III-40, 2-(2-(pyridin-2-yloxy)ethyl)-7-(4-(trifluoromethoxy)phenyl)phthalazin-1 (2H)-one] | 51 | 4 | 2 | – | – | – |

Continued, compound first:

| SMILES | MS Human THalf [1] [min] | MS Dog THalf [4] [min] | MS Rat THalf [5] [min] | inhibition at 1 µM [2, 6] [%] | inhibition at 1 µM [3, 7] [%] | inhibition at 1 µM [3, 8] [%] | inhibition at 1 µM [2, 9] [%] | inhibition at 1 µM [3, 10] [%] | inhibition at 1 µM [3, 11] [%] |
| --- | --- | --- | --- | --- | --- | --- | --- | --- | --- |
| Cc1coc(Cn2nnc3ccc(-c4ccc(OC(F)(F)F)cc4)cc3c2=O)n1 [II-97, 3-((4-methyloxazol-2-yl)methyl)-6-(4-(trifluoromethoxy)phenyl)benzo[d][1,2,3]triazin-4(3H)-one] | 206 | 63 | 24 | 54 | 12 | 7 | – | – | – |
| Cc1nc(Cn2nnc3ccc(-c4ccc(OC(F)(F)F)cc4)cc3c2=O)co1 [II-99, 3-((2-methyloxazol-4-yl)methyl)-6-(4-(trifluoromethoxy)phenyl)benzo[d][1,2,3]triazin-4(3H)-one] | 128 | 62 | 42 | 47 | 9 | 0 | – | – | – |
| O=c1c2cc(-c3ccc(OC(F)(F)F)cc3)ccc2nnn1Cc1coc(C2CC2)n1 [II-100, 3((2-cyclopropyloxazol-4-yl)methyl)-6-(4-(trifluoromethoxy)phenyl)benzo[d][1,2,3]triazin-4(3H)-one] | 52 | 76 | 35 | 50 | 15 | 2 | – | – | – |
| O=C(c1ccccn1)N1CCc2ccc(-c3ccc(C(F)(F)F)cc3)cc2C1 [IX-6, pyridin-2-yl(7-(4-(trifluoromethyl)phenyl)-3,4-dihydroisoquinolin-2(1H)-yl)methanone] | 54 | 313 | 272 | 62 | 28 | 37 | – | – | – |
| O=C(c1ncccn1)N1CCc2ccc(-c3ccc(OC(F)(F)F)cc3)cc2C1 [IX-11, pyrimidin-2-yl(7-(4-(trifluoromethoxy)phenyl)-3,4-dihydroisoquinolin-2(1H)-yl)methanone] | 145 | 332 | 348 | 44 | 17 | 22 | 44 | 17 | 22 |
| O=C(c1ncccc1F)N1CCc2ccc(-c3ccc(C(F)(F)F)cc3)cc2C1 [IX-25, (3-fluoropyridin-2-yl)(7-(4-(trifluoromethyl)phenyl)-3,4-dihydroisoquinolin-2(1H)-yl)methanone] | 320 | 97 | 170 | 57 | 28 | 33 | 57 | 28 | 32 |
| O=C(Cc1ccccn1)N1CCc2ccc(-c3ccc(C(F)(F)F)cc3)cc2C1 [IX-29, 2-(pyridin-2-yl)-1-(7-(4-(trifluoromethyl)phenyl)-3,4-dihydroisoquinolin-2(1H)-yl)ethanone] | 33 | 138 | 48 | 45 | 10 | 12 | 45 | 10 | 12 |

Source: US20150329558A1, “FUSED HETEROCYCLIC COMPOUNDS AS ION CHANNEL MODULATORS” (Gilead Sciences, Inc., priority 2011, published 2015)
